# ChEMBL document CHEMBL4043194, “Nrf2 activators from Glycyrrhiza inflata and their hepatoprotective activities against CCl4-induced liver injury in mice” (Bioorg Med Chem, 2017)
# Target: T1, Nuclear factor erythroid 2-related factor 2 (Homo sapiens) (UniProt Q16236)
# T1 sequence (whole entry): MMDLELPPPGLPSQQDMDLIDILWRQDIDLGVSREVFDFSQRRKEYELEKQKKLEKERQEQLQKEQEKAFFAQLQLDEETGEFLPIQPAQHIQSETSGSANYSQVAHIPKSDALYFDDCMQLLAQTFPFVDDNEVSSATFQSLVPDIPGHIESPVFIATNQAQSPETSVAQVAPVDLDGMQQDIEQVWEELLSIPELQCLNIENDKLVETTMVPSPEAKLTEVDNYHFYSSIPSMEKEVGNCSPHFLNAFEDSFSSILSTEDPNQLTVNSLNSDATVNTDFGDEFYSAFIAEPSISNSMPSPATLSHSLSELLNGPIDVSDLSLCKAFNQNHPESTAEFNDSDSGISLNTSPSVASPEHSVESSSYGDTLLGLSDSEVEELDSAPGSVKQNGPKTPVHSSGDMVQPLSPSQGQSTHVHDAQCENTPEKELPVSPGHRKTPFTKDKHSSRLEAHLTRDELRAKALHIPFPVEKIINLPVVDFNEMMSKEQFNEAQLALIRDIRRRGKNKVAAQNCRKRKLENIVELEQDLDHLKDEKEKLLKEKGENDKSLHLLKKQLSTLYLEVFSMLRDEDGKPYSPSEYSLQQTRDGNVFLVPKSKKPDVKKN
# Experiment: Activation of Nrf2 (unknown origin) expressed in human HepG2 cells at 10 uM incubated for 6 hrs by ARE-driven luciferase reporter gene assay relative to untreated control
# Type: cell-based
# Details: not given
row,SMILES,fold change (FC)
1,CC1(C)C=Cc2cc(-c3coc4cc(O)cc(O)c4c3=O)ccc2O1,0.76
2,COc1c(/C=C/C(=O)c2ccc(O)cc2)cc(CC=C(C)C)c(O)c1O,3.39
3,COc1cc(O)c(-c2coc3cc(O)ccc3c2=O)c(OC)c1CC=C(C)C,1.87
4,CC(C)=CCc1c(O)cc2c(c1O)C(=O)[C@H](c1ccc3c(c1O)C=CC(C)(C)O3)CO2,2.33
5,COc1c(/C=C/C(=O)c2ccc(O)c(O)c2)ccc(O)c1CC=C(C)C,2.07
6,CC(C)=CCc1c(O)ccc(-c2coc3cc(O)c(CC=C(C)C)c(O)c3c2=O)c1O,1.05
7,O=C1c2ccc(O)cc2OCC1c1ccc(O)c(O)c1 (centres undefined),2.12
8,CC1(C)C(=O)CC[C@]2(C)[C@H]3C(=O)C=C4[C@@H]5C[C@@](C)(C(=O)O)CC[C@]5(C)CC[C@@]4(C)[C@]3(C)[C@@H](O)C[C@@H]12,1.18
9,CC(C)=CCc1cc(/C=C/C(=O)c2ccc(O)cc2O)ccc1O,1.87
10,O=C1C[C@@H](c2cc(O)cc(O)c2)Oc2cc(O)ccc21,1.54
11,O=C(/C=C/c1ccc(O)cc1)c1ccc(O)cc1O,4.67
12,CC(C)=CCc1c(O)ccc2c1oc1c3ccc(O)cc3oc(=O)c21,1.81
13,O=c1cc(-c2ccc(O)cc2)oc2cc(O)ccc12,1.23
14,C=CC(C)(C)c1cc(/C=C/C(=O)c2ccc(O)cc2)c(OC)c(O)c1O,3.09
15,O=C1C[C@@H](c2ccc(O)cc2)Oc2cc(O)ccc21,1.97
16,CC(C)=CCc1c(O)cc2occ(-c3cc(O)c4c(c3)C=CC(C)(C)O4)c(=O)c2c1O,1.51
17,CC(C)=CCc1cc(/C=C/C(=O)c2ccc(O)c(CC=C(C)C)c2O)ccc1O,1.22
18,CC(C)=CCc1cc([C@@H]2CC(=O)c3cc(CC=C(C)C)c(O)cc3O2)ccc1O,1.59
19,CC(C)=CCc1cc(-c2coc3cc(O)cc(O)c3c2=O)cc(O)c1O,1.91
20,COc1ccc(C2COc3c(cc(CC=C(C)C)c(O)c3O)C2=O)cc1 (centres undefined),1.06
21,CC(C)=CCc1cc(-c2cc(=O)c3c(O)c(CC=C(C)C)c(O)cc3o2)ccc1O,2.98
22,CC(C)=CCc1c(O)ccc(-c2cc3ccc(O)cc3o2)c1O [2'-O-DEMETHYLBIDWILLOL B],4.34
23,CC1(C)C=Cc2cc(/C=C/C(=O)c3ccc(O)cc3O)ccc2O1,2.37
24,CC1(C)[C@@H](O)CC[C@]2(C)[C@H]3CC=C4[C@@H]5C[C@@](C)(C(=O)O)CC[C@]5(C)CC[C@@]4(C)[C@]3(C)CC[C@@H]12,1.43

row,SMILES,fold change (FC)
1,CC1(C)C=Cc2c(ccc(-c3coc4cc(O)ccc4c3=O)c2O)O1,1.4
2,CC(C)=CCc1c(O)cc2occ(-c3ccc4c(c3)C=CC(C)(C)O4)c(=O)c2c1O,1.34
3,CC(C)=CCc1c(O)cc(O)c2c(=O)c(-c3ccc4c(c3O)C=CC(C)(C)O4)coc12,1.56
4,CC(C)=CCc1cc([C@@H]2CC(=O)c3ccc(O)cc3O2)cc2c1OC(C)(C)C=C2,1.84
5,CC1(C)C=Cc2c(O)ccc(C3COc4cc(O)cc(O)c4C3=O)c2O1 (centres undefined),1.42
6,CC1(C)C=Cc2c(ccc3c(=O)c(-c4ccc(O)cc4O)coc23)O1,1.76
7,COc1ccc(-c2coc3c(O)c(O)c(CC=C(C)C)cc3c2=O)c(O)c1,1.42
8,CC1(C)C=Cc2cc(-c3coc4cc(O)cc(O)c4c3=O)cc(O)c2O1,1.13
9,CC1(CO)C=Cc2c(ccc(-c3coc4cc(O)ccc4c3=O)c2O)O1 (centres undefined),2.76
10,COc1c(/C=C/C(=O)c2ccc(O)cc2)ccc(O)c1CC=C(C)C,1.42
11,CC(C)=CCc1cc(C2CC(=O)c3ccc(O)c(CC=C(C)C)c3O2)ccc1O (centres undefined),1.21
12,COC(C)(C)c1cc2cc3c(=O)cc(-c4ccc(O)c(CC=C(C)C)c4)oc3cc2o1,1.54
13,CC(C)=CCc1cc([C@@H]2CC(=O)c3c(O)cc(O)c(CC=C(C)C)c3O2)ccc1O,1.41
14,O=C(/C=C/c1ccc(O)c(O)c1)c1ccc(O)c(O)c1,1.85
15,CC(C)=CCc1c(O)ccc(C(=O)/C=C/c2ccc(O)cc2)c1O,1.91
16,C=CC(C)(C)c1cc(/C=C/C(=O)c2ccc(O)c(O)c2)c(OC)cc1O,5.98
17,CC1(C)C=Cc2cc(-c3coc4cc(O)ccc4c3=O)c(O)cc2O1,2.3
18,CC(C)=CCc1c(O)ccc2c1O[C@H](c1ccc3c(c1)C=CC(C)(C)O3)CC2=O,1.4
19,CC(C)=CCc1c(O)cc(O)c2c1OC[C@@H](c1ccc3c(c1O)C=CC(C)(C)O3)C2=O,1.88
20,CC(C)=CCc1cc2c(=O)cc(-c3ccc(O)cc3)oc2cc1O,1.05
21,O=C1c2c(O)cc(O)cc2OCC1c1ccc(O)cc1 (centres undefined),1.72
22,CC1(C)C=Cc2c(ccc3c2OC[C@@H](c2ccc(O)cc2O)C3)O1,2.58
23,CC(C)=CCc1c(O)cc2occ(-c3ccc(O)cc3)c(=O)c2c1O,1.49
24,CC(C)=CCc1c(O)ccc([C@H]2COc3cc(O)c(CC=C(C)C)c(O)c3C2=O)c1O,1.98

row,SMILES,fold change (FC)
1,CC1(C)C=Cc2c(ccc(-c3coc4cc(O)cc(O)c4c3=O)c2O)O1,1.47
2,O=c1c(-c2ccc(O)cc2)coc2cc(O)cc(O)c12,1.2
3,CC(C)=CCc1cc(-c2coc3c(CC=C(C)C)c(O)cc(O)c3c2=O)cc(O)c1O,1.2
4,CC(C)=CCc1c(O)ccc(-c2coc3c(CC=C(C)C)c(O)cc(O)c3c2=O)c1O,1.98
5,COc1cc2occ(-c3ccc(O)cc3O)c(=O)c2c(O)c1CC=C(C)C,2.36
6,CC(C)=CCc1c(O)ccc(C(=O)/C=C/c2ccc(O)c(O)c2)c1O,1.56
7,CC(C)=CCc1c(O)cc(O)c2c(=O)c(-c3ccc(O)cc3O)coc12,1.78
8,CC(C)=CCc1c(O)ccc(-c2coc3cc(O)cc(O)c3c2=O)c1O,2.49
9,COc1ccc2c(c1)OC[C@H]1c3ccc(O)cc3O[C@@H]21,1.23
10,COc1ccc(-c2coc3cc(O)ccc3c2=O)cc1,2.65
11,CC(C)=CCc1cc2c(=O)cc(-c3ccc4c(c3)C=CC(C)(C)O4)oc2cc1O,1.03
12,CC(C)=CCc1c(O)cc2occ(-c3ccc4c(c3O)C=CC(C)(C)O4)c(=O)c2c1O,1.37
13,CC(C)=CCc1c(O)c(CC=C(C)C)c2oc(-c3ccc(O)cc3)cc(=O)c2c1O,1.46
14,COc1c(/C=C/C(=O)c2ccc(O)c(CC=C(C)C)c2)ccc(O)c1O [LICOCHALCONE D],4.53
15,CC(C)=CCc1c(O)ccc(-c2coc3cc(O)ccc3c2=O)c1O,2.15
16,CC1(C)C=Cc2c(O)ccc(-c3coc4cc(O)cc(O)c4c3=O)c2O1,1.7
17,C=C(C)[C@H](C)c1cc(/C=C/C(=O)c2ccc(O)cc2)c(OC)cc1O [LICOCHALCONE E],5.94
18,CC(C)=CCc1c(O)c(CC=C(C)C)c2occ(-c3ccc(O)cc3)c(=O)c2c1O,1.21
19,CC1(C)C=Cc2c(ccc(-c3cc4ccc(O)cc4o3)c2O)O1,1.08
20,COc1cc(-c2coc3cc(O)ccc3c2=O)ccc1O,1.12
21,CC(C)=CCc1cc(-c2cc(=O)c3cc4c(cc3o2)OC(C)(C)C=C4)ccc1O,1.73
22,COc1ccc(-c2coc3cc(O)ccc3c2=O)c(O)c1,2.28
23,CC(C)=CCc1cc([C@@H]2CC(=O)c3ccc(O)cc3O2)ccc1O,2.2
24,CC1(C)C=Cc2c(cc3occ(-c4ccc(O)cc4)c(=O)c3c2O)O1,2.17

# Test system: HepG2
# Experiment: Cytotoxicity in human HepG2 cells expressing Nrf2/ARE-driven luciferase at 20 to 40 uM incubated for 6 hrs
# Type: cell-based
# Details: hepg2, 6 h
row,SMILES,Activity
1,C=CC(C)(C)c1cc(/C=C/C(=O)c2ccc(O)cc2)c(OC)c(O)c1O,Toxic
2,CC(C)=CCc1c(O)ccc(-c2cc3ccc(O)cc3o2)c1O [2'-O-DEMETHYLBIDWILLOL B],Toxic
3,COc1c(/C=C/C(=O)c2ccc(O)c(CC=C(C)C)c2)ccc(O)c1O [LICOCHALCONE D],Toxic

# Test system: HepG2
# Experiment: Cytotoxicity in human HepG2 cells expressing Nrf2/ARE-driven luciferase at 10 to 40 uM incubated for 6 hrs
# Type: cell-based
# Details: hepg2, 6 h
row,SMILES,Activity
1,COc1c(/C=C/C(=O)c2ccc(O)cc2)cc(CC=C(C)C)c(O)c1O,Toxic
2,C=CC(C)(C)c1cc(/C=C/C(=O)c2ccc(O)c(O)c2)c(OC)cc1O,Toxic
3,C=C(C)[C@H](C)c1cc(/C=C/C(=O)c2ccc(O)cc2)c(OC)cc1O [LICOCHALCONE E],Toxic

# Target: T1, Nuclear factor erythroid 2-related factor 2 (Homo sapiens)
# Experiment: Activation of Nrf2 (unknown origin) expressed in human HepG2 cells at 2.5 to 20 uM incubated for 6 hrs by ARE-driven luciferase reporter gene assay
# Type: cell-based
# Details: not given
row,SMILES,Activity
1,C=CC(C)(C)c1cc(/C=C/C(=O)c2ccc(O)cc2)c(OC)c(O)c1O,Dose-dependent effect
2,CC(C)=CCc1c(O)ccc(-c2cc3ccc(O)cc3o2)c1O [2'-O-DEMETHYLBIDWILLOL B],Dose-dependent effect
3,COc1c(/C=C/C(=O)c2ccc(O)c(CC=C(C)C)c2)ccc(O)c1O [LICOCHALCONE D],Dose-dependent effect

# Target: T1, Nuclear factor erythroid 2-related factor 2 (Homo sapiens)
# Experiment: Activation of Nrf2 (unknown origin) expressed in human HepG2 cells at 2.5 to 10 uM incubated for 6 hrs by ARE-driven luciferase reporter gene assay
# Type: cell-based
# Details: not given
row,SMILES,Activity
1,COc1c(/C=C/C(=O)c2ccc(O)cc2)cc(CC=C(C)C)c(O)c1O,Dose-dependent effect
2,C=CC(C)(C)c1cc(/C=C/C(=O)c2ccc(O)c(O)c2)c(OC)cc1O,Dose-dependent effect
3,C=C(C)[C@H](C)c1cc(/C=C/C(=O)c2ccc(O)cc2)c(OC)cc1O [LICOCHALCONE E],Dose-dependent effect
